Legend:
[1] = system: renal ischemia reperfusion in mice; assay: mouse renal ischemia reperfusion test; assay type: in vivo; parameters: BUN after 25 minutes renal ischemia, mean / Urea levels in dose-response experiment: unit not given here
Protocol: Six oligopeptides (i.e., A: LAGV (SEQ ID NO:121); B: AQGV (SEQ ID NO:120); C: LAG; D: AQG; E: MTR; and F: MTRV (SEO ID NO:119)) were tested and compared with PBS (control) in a double blind animal study for each peptide's relative ability to aid recovery in a mouse renal ischemia reperfusion test. In this test, the mice were anesthetized, and one kidney from each mouse was removed. The other kidney was tied off for 25 minutes, and the serum urea levels were allowed to increase. Both before and after tying off, each of the separate peptides was administered to thirty (30) different mice (5 mg oligopeptide / kg body mass intravenously), after which, the mortality of the mice was determined for each oligopeptide as well as was the BUN concentration at two hours, 24 hours and 72 hours. The results are shown in Table 3 below (excluding the results of peptide A (LAGV (SEQ ID NO:121)) obtained in Example 3).
Under inhalation anesthesia, the left kidney with its artery and vein was isolated and occluded for 25 minutes using a microvascular clamp. During surgery, animals were placed on a heating pad to maintain body temperature at 37° C. Five minutes before placing the clamp, and five minutes before releasing the clamp, 5 mg/kg of peptide dissolved in 0.1 mL of sterile saline, was administered intravenously. After reperfusion of the left kidney, the right kidney was removed. Kidney function was assessed by measuring blood urea nitrogen before clamping, and at 2, 24, and 72 hours after reperfusion.
Peptides were tested at 0.3, 1, 3, 10 and 30 mg/kg dosages given as described in Example 3. P values (calculated by Mann Whitney U-test (SPSS for Windows)) of serum urea levels of PBS compared to peptide D groups at 72 hours post-clamping were at 0.3 mg/kg 0.001, at 1 mg/kg 0.009, at 3 mg/kg 0.02, at 10 mg/kg 0.000, and at 30 mg/kg 0.23; for peptide B (SEQ ID NO:120) groups, these P-values were 0.88, 0.054, 0.000, 0.001 and 0.003.

[2] = system: high dose LPS (E. coli 026:B6)-induced septic shock in BALB/c mice; assay: high dose LPS-induced septic shock, peptide administered twice; assay type: in vivo; settings: peptide twice (t = 2 and 24 hours) 5 mg/kg
Protocol: Mice used in sepsis or septic shock experiments: Female BALB/c mice of eight to twelve weeks of age were used for all experiments. The animals were bred in our facility under specific pathogen-free conditions according to the protocols described in the […] of European Laboratory Animal Science Associations (FELASA) Working group on Animal Health (Laboratory Animals 28:1-24, 1994).
Injection protocols: For the endotoxin model, BALB/c mice were injected i.p. with 150-300 μg LPS (E. coli 026:B6; Difco Lab., Detroit, Mich., USA). Control groups were treated with PBS i.p. only. To test the effect of peptides, they were dissolved in PBS and injected i.p. at predetermined points in time after LPS treatment.
Mice were scored for sickness severity using the following measurement scheme: • 0 No abnormalities. • 1 Percolated fur, but no detectable behavior differences compared to normal mice. • 2 Percolated fur, huddle reflex, responds to stimuli (such as tap on cage), just as active during handling as healthy mouse. • 3 Slower response to tap on cage, passive or docile when handled, but still curious when alone in a new setting. • 4 Lack of curiosity, little or no response to stimuli, quite immobile. • 5 Labored breathing, inability or slow to self-right after being rolled onto back (moribund, sacrificed). • D Dead.
A second set of septic shock experiments were set up to determine which of the peptides LQG, LQGV (SEQ ID NO:117), VLPALP (SEQ ID NO:140), VLPALPQ (SEQ ID NO:143), MTR, MTRV (SEQ ID NO:119), VVC or AQG, AQGV (SEQ ID NO:120), LAG and LAGV (SEQ ID NO:121) were capable of inhibiting high dose LPS-induced septic shock in mice by treating mice with a double dose of peptide at two and 24 hours after LPS treatment. At each treatment, peptides were used at 5 mg/kg bodyweight. BALB/c mice were injected i.p. with high doses LPS (E. coli 026:B6; Difco Lab., Detroit, Mich. USA), predetermined to be leading to 80 to 100% mortality in 24 to 72 hours.

[3] = system: cell-cycle marker pCDG and auxin-responsive marker DR5::GUS; assay: Arabidopsis thaliana seedling cell-cycle analysis (GUS markers); settings: Results from Examples 9 and 10
Protocol: To further study anti-cell-cycle activity of various oligopeptides, a proliferation experiment in Arabidopsis Thaliana seedlings was performed. The aim was to test a group of 140 oligopeptides of varying length for their effect on plant marker gene expression during rapid growth when avid cell division occurs.
The peptides were re-suspended in 1× Phosphate Buffer Saline (PBS) pH 8 to a final concentration of 5 mg/ml. The obtained solutions were then divided through 96-well round bottom plates (Corning Incorporated) at 40 microliters per well. Plates were stored before use at […] for four days. Seeds of Arabidopsis thaliana ecotype Ws-0 were surface sterilized in 2% commercial bleach (Gloria) for ten minutes and washed five times with sterile MQ water. The seeds were then re-suspended with 0.1% agar and plated on MS20 plates supplemented with 80 mg/l Kanamycin.
The plates were placed at […] for two nights and then transferred to a climate room at […] and a 16/8 hours photoperiod. After four days of growth, the seedlings were transferred to 96-well plates containing the peptide solutions (four seedlings per well) and incubated for four and eight hours.
For this experiment, Arabidopsis homozygous seedlings harboring two reporter genes fused to GUS were used. […] After incubation with the compounds, the seedlings were stained for GUS. The staining reaction was performed in 100 mM sodium phosphate buffer (pH 7.0) that contained 10 mM EDTA, 10% DMSO, 0.1% Triton X-100, 2 mM X-Gluc, 0.5 mM K3Fe(CN)6 and 0.5 mM K4Fe(CN)6 at […] for 16 hours. […] Seedlings were fixed and cleared in chloral hydrate solution for detailed microscopic observation and photography under a microscope equipped with DIC optics.
Peptides were tested for an effect on marker gene expression on rapidly growing Arabidopsis young seedlings. This was monitored by changes on GUS distribution in different organs: root, root-hypocotyl transition zone and cotyledons.

AQG
Mortality in dose-response experiment ([1]; 0.3 mg/kg, 24 hours): 0-10 | Urea levels in dose-response experiment ([1]; 0.3 mg/kg, 24 hours): 38.4 | Mortality in dose-response experiment ([1]; 0.3 mg/kg, 72 hours): 2-8 | Urea levels in dose-response experiment ([1]; 0.3 mg/kg, 72 hours): 30.4 | Mortality in dose-response experiment ([1]; 1.0 mg/kg, 24 hours): 0-10 | Urea levels in dose-response experiment ([1]; 1.0 mg/kg, 24 hours): 48.4 | Mortality in dose-response experiment ([1]; 1.0 mg/kg, 72 hours): 1-8 | Urea levels in dose-response experiment ([1]; 1.0 mg/kg, 72 hours): 38.4 | Mortality in dose-response experiment ([1]; 3.0 mg/kg, 24 hours): 0-10 | Urea levels in dose-response experiment ([1]; 3.0 mg/kg, 24 hours): 39.3 | Mortality in dose-response experiment ([1]; 3.0 mg/kg, 72 hours): 0-10 | Urea levels in dose-response experiment ([1]; 3.0 mg/kg, 72 hours): 40.3 | BUN concentration versus the PBS control group (in words) ([1]; 5 mg/kg i.v.): no reducing effect on BUN concentration | mortality versus the PBS control group (in words) ([1]; 5 mg/kg i.v.): significant reduction of mortality | mortality at 72 hours post-reperfusion ([1]; 5 mg/kg i.v. before and after 25 minutes clamping, dead/total): 4/10 | Mortality in dose-response experiment ([1]; 10.0 mg/kg, 24 hours): 0-8 | Urea levels in dose-response experiment ([1]; 10.0 mg/kg, 24 hours): 46.8 | Mortality in dose-response experiment ([1]; 10.0 mg/kg, 72 hours): 1-10 | Urea levels in dose-response experiment ([1]; 10.0 mg/kg, 72 hours): 25.8 | Mortality in dose-response experiment ([1]; 30.0 mg/kg, 24 hours): 0-8 | Urea levels in dose-response experiment ([1]; 30.0 mg/kg, 24 hours): 52.8 | Mortality in dose-response experiment ([1]; 30.0 mg/kg, 72 hours): 1-8 | Urea levels in dose-response experiment ([1]; 30.0 mg/kg, 72 hours): 58.9 | BUN after 25 minutes renal ischemia, mean ([1]; 2 hours after reperfusion, 5 mg/kg i.v.): 17.7 | BUN after 25 minutes renal ischemia, mean ([1]; 24 hours after reperfusion, 5 mg/kg i.v.): 66.76 | BUN after 25 minutes renal ischemia, mean ([1]; 72 hours after reperfusion, 5 mg/kg i.v.): 91.18 | BUN levels in dose-response experiment (in words) ([1]; lower dosages tested (0.3-30 mg/kg range), compared with peptide B): did reduce BUN levels surprisingly well at the lower dosages tested | BUN after 25 minutes renal ischemia, mean ([1]; t = 0 hr (before clamping), 5 mg/kg i.v.): 9.304 | mice with sickness score 1, effect at t = 24 hours ([2]; LPS dose 10.5): 2 | mice with sickness score 1, effect at t = 48 hours ([2]; LPS dose 10.5): 2 | mice with sickness score 2, effect at t = 24 hours ([2]; LPS dose 10.5): 1 | mice with sickness score 2, effect at t = 48 hours ([2]; LPS dose 10.5): 3 | mice with sickness score 3, effect at t = 24 hours ([2]; LPS dose 10.5): 2 | mice with sickness score 1, effect at t = 24 hours ([2]; LPS dose 11): 4 | mice with sickness score 2, effect at t = 48 hours ([2]; LPS dose 11): 6 | mice with sickness score 3, effect at t = 24 hours ([2]; LPS dose 11): 2 | identified as useful peptide for treatment of radiation injury from cell-cycle studies in plants and in vitro proliferation studies [3]: useful

— patent publication US7795226B2, “Control of radiation injury” (Biotempt B.V., priority 2006, dated 2010)
